Series [1] has as its system Amblyomma hebraeum. The experiment in a line: Amblyomma hebaraeum test (tick nymphs, immersion). It counts as in vivo. Conditions: application rate 100 ppm; tick nymphs immersed one minute; after 42 days. Here is the method: Solvent: dimethyl sulphoxide
To produce an appropriate active ingredient formulation, 10 mg of active ingredient are mixed with 0.5 ml of dimethyl sulphoxide, and the concentrate is diluted with water to the desired concentration.
Tick nymphs (Amblyomma hebraeum) are placed into perforated plastic beakers and immersed in the desired concentration for one minute. The ticks are transferred on filter paper into a Petri dish and stored in a climate-controlled cabinet.
After 42 days, the kill in % is determined. 100% means that all of the ticks have been killed; 0% means that none of the ticks have been killed.

Series [2] is described as follows: logP determination by HPLC on a reversed-phase column (C18). In kind it is physicochemical. Particulars: for logP^a): HPLC-MS method a); for log P: HPLC-MS.
Series [3] concerns Boophilus microplus. As to the kind of experiment: Boophilus microplus - injection test. It counts as in vivo. Particulars: application rate 20 μg/animal; injection into engorged adult female ticks; after 7 days. The method, boiled down:
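Five engorged adult female cattle ticks each received a 1 μl abdominal injection of compound solution in dimethyl sulphoxide. Fertile egg laying was assessed at 7 days, with doubtful eggs incubated about 42 days until hatch. 0% efficacy means all eggs fertile.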

In series [4] the test system is Phaedon cochleariae. The experiment in a line: Phaedon cochleariae - spray test. In kind it is in vivo. Particulars: larvae on Chinese cabbage leaf discs, after 7 days. The method, boiled down: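 Mortality of mustard beetle larvae was scored as % at day 7 on Brassica pekinensis leaf discs. Discs had been treated by spraying at the desired concentration, using an acetone/dimethylformamide solution diluted in water with 1000 ppm alkylaryl polyglycol ether, and dried before larvae were added.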

Series [5] relates to Ctenocephalides felis. The experiment in a line: Ctenocephalides felis - oral test. In kind it is in vivo. Particulars: application rate 100 ppm in citrated cattle blood; after 2 days. The method, boiled down:
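Roughly 20 unfed adult C. felis imbibe compound-dosed citrated cattle blood (DMSO formulation) across parafilm from a cylinder above their gauze chamber; percentage mortality recorded at day 2.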

In series [6] the test system is Ctenocephalides felis. The experiment in a line: Ctenocephalides felis - in vitro contact tests with adult cat fleas. In kind it is in vivo. Conditions: application rate 5 μg/cm2 (=500 g/ha); after 48 h; fleas dead or moribund. The method, boiled down: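 Efficacy, as percentage of fleas dead or moribund, was scored at 48 h by knocking fleas to the tube base. Exposure was by contact with a dried acetone film of compound at 5 μg/cm^2 area dose; 5–10 adults per tube, room temperature, ambient humidity.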

Series [7] deals with Spodoptera frugiperda. As to the kind of experiment: Spodoptera frugiperda - spray test. In kind it is in vivo. Particulars: caterpillars on maize leaf discs, after 7 days. The method, boiled down: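 Percent mortality of Spodoptera frugiperda caterpillars scored 7 days after placing them on dried maize leaf discs sprayed at the desired concentration. Spray formulation: compound dissolved in acetone/dimethylformamide, made up with water containing 1000 ppm emulsifier.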

Series [8] deals with Boophilus microplus Parkhurst strain, SP-resistant. The experiment in a line: Boophilus microplus - dip test. In kind it is in vivo. Conditions: application rate 100 ppm; dip of engorged adult female ticks; after 7 days. The method, boiled down: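 Compound dissolved in DMSO, diluted with water, and used to fully wet groups of 8-10 engorged female cattle ticks (SP-resistant Parkhurst strain). Fertile egg laying assessed at 7 days, doubtful eggs held ~42 days until hatch; 0% means all eggs fertile.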

For series [9], the system named is Myzus persicae. As to the kind of experiment: Myzus persicae - spray test. Conditions: Chinese cabbage leaf discs, after 6 days. It counts as in vivo. The method, boiled down:
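Mortality of the green peach aphid, as % killed, was read 6 days after spraying infested Brassica pekinensis leaf discs. Compound formulated in acetone/dimethylformamide and made up with emulsifier-containing (1000 ppm) water.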

For series [10], the system named is Tetranychus urticae. The experiment in a line: Tetranychus urticae - spray test, OP-resistant. In kind it is in vivo. Conditions: bean leaf discs, after 6 days. The method, boiled down:
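Mortality (%) read on day 6 after spraying Phaseolus vulgaris leaf discs carrying all mite stages with formulations at the desired concentration. Formulation: active ingredient in acetone plus dimethylformamide, made up with emulsifier-containing water (1000 ppm alkylaryl polyglycol ether).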

The subject of series [11] is Lucilia cuprina. The experiment in a line: Lucilia cuprina test. It counts as in vivo. Conditions: application rate 100 ppm; L1 larvae; after 2 days. The method, boiled down:
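Mortality (%) of first-instar blowfly larvae, about 20 per vessel, recorded 2 days after exposure to compound-treated minced horsemeat. Compound dissolved in dimethyl sulphoxide, then water-diluted to the desired concentration.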

Series [12] concerns Musca domestica. As to the kind of experiment: Musca domestica test. In kind it is in vivo. Particulars: application rate 100 ppm; adult houseflies; after 2 days. The method, boiled down: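 10 adult flies per vessel; sugar-solution sponge dosed with active ingredient formulation (DMSO concentrate diluted in water to desired concentration). Read-out: % kill at 2 days.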
Where [13] appears, read: reversed-phase column (C18), Table I-T3.

One may read the log P as the decadic logarithm of the partition coefficient of the neutral form, usually between octanol and water. Lower therefore signals lower lipophilicity.

For the compound `N#CC1(NC(=O)c2cc(-c3cnn(-c4c(Cl)cc(C(F)(F)F)cc4Cl)c3)cnc2Cl)CC1` [I-T3-95], the “efficacy (kill)” value in series [1] and in [5] was 100% throughout. Further, the “logP^a)” value in series [2] is on record as 3.1. The “log P” value in series [2] (setting [13]) is recorded as 3.1. Further, the “efficacy (laying of fertile eggs)” value in [3] and in series [8] was 100% throughout. Moreover, the efficacy in series [4] (application rate 100 g/ha) came to 100%; in series [6], 100%; in series [7] (application rate 100 g/ha) it was 100%; in [9] (application rate 100 g/ha) it was 90%; in series [10] (application rate 100 g/ha), 100%.
`Cc1cc(C(F)(C(F)(F)F)C(F)(F)F)cc(C(F)(F)F)c1-n1cc(-c2cnc(Cl)c(C(=O)N(C)C3CC3)c2)cn1` [I-T3-107]: the “efficacy (kill)” value in [1], in series [5], in [11] and in series [12] was 100% throughout. In addition, the “logP^a)” value in series [2] (reversed-phase column (C18)) amounted to 4.5. In series [2] (setting [13]), the “log P” value worked out at 4.5. The “efficacy (laying of fertile eggs)” value in series [3] and in series [8] was 100% in each case. For the same compound, the efficacy in [4] (application rate 500 g/ha), in [6], in series [7] (application rate 500 g/ha), in [9] (application rate 500 g/ha) and in [10] (application rate 500 g/ha) was 100% in each case.
On to `Cc1cc(C(F)(C(F)(F)F)C(F)(F)F)cc(C(F)(F)F)c1-n1cc(-c2cnc(Cl)c(C(=O)N(C)C3(C#N)CC3)c2)cn1` [I-T3-111], for which the “efficacy (kill)” value amounted to 80% in series [1], 100% in [5], 100% in series [11] and 100% in series [12]. Moreover, the “logP^a)” value in series [2] (reversed-phase column (C18)) is 4.4. In addition, the “log P” value in series [2] (setting [13]) was 4.4. Also, the “efficacy (laying of fertile eggs)” value in series [3] is 100%; in series [8] it was 98%. For the same compound, the efficacy in series [4] (application rate 500 g/ha) worked out at 100%; in [6] it was 100%; in [7] (application rate 500 g/ha), 100%; in series [10] (application rate 100 g/ha), 90%.
As for `CN(C(=O)c1cc(-c2cnn(-c3c(Cl)cc(C(F)(C(F)(F)F)C(F)(F)F)cc3C(F)(F)F)c2)cnc1Cl)C1(C#N)CC1` [I-T3-116], the “efficacy (kill)” value in series [1], in series [5], in [11] and in [12] was 100% throughout. The “logP^a)” value in series [2] (reversed-phase column (C18)) stood at 4.3. Besides, in [2] (setting [13]), the “log P” value stood at 4.3. Besides, the “efficacy (laying of fertile eggs)” value in series [3] and in [8] was 100% in each case. The efficacy is listed as 100% in series [4] (application rate 500 g/ha); 100% in series [6]; 100% in series [7] (application rate 500 g/ha); 100% in [9] (application rate 100 g/ha); 90% in series [10] (application rate 500 g/ha).
Turning to `CN(C(=O)c1cc(-c2cnn(-c3c(Cl)cc(C(F)(C(F)(F)F)C(F)(F)F)cc3Cl)c2)cnc1Cl)C1CC1` [I-T3-100], the “efficacy (kill)” value in [1], in [5], in series [11] and in series [12] was 100% each time. Moreover, in series [2], the “logP^a)” value is 4.4. Also, the “log P” value in series [2] (setting [13]) was found to be 4.4. Also, the “efficacy (laying of fertile eggs)” value in series [3] and in series [8] was 100% each time. In addition, the efficacy in series [4] (application rate 500 g/ha), in series [6], in series [7] (application rate 500 g/ha), in series [9] (application rate 500 g/ha) and in series [10] (application rate 500 g/ha) was 100% in each case.
Turning to `CN(C(=O)c1cc(-c2cnn(-c3c(Cl)cc(C(F)(C(F)(F)F)C(F)(F)F)cc3Cl)c2)cnc1Cl)C1(C#N)CC1` [I-T3-102], the “efficacy (kill)” value in [1] is recorded as 90%; in series [5], 100%; in series [11], 100%; in series [12] it was 100%. Moreover, the “logP^a)” value in series [2] (reversed-phase column (C18)) was determined as 4.3. In addition, the “log P” value in series [2] (setting [13]) is recorded as 4.3. Also, the “efficacy (laying of fertile eggs)” value in series [3] and in series [8] was 100% in each case. For the same compound, the efficacy is 100% in [4] (application rate 500 g/ha), 100% in [6], 100% in series [7] (application rate 500 g/ha) and 90% in series [10] (application rate 500 g/ha).
`Cc1ncc(-c2cnn(-c3c(Cl)cc(C(F)(C(F)(F)F)C(F)(F)F)cc3C(F)(F)F)c2)cc1C(=O)NC1CC1` [I-T3-124]: the “efficacy (kill)” value in series [1], in series [5], in series [11] and in series [12] was 100% throughout. Moreover, in [2] (reversed-phase column (C18)), the “logP^a)” value is 3.5. The “log P” value in series [2] (setting [13]) is 3.5. Moreover, the “efficacy (laying of fertile eggs)” value in series [3] and in series [8] was 100% in each case. The efficacy in series [4] (application rate 100 g/ha), in [6], in series [7] (application rate 100 g/ha), in [9] (application rate 100 g/ha) and in series [10] (application rate 100 g/ha) was 100% throughout.
With `Cc1cc(C(F)(C(F)(F)F)C(F)(F)F)cc(Br)c1-n1cc(-c2ccc(Cl)c(C(=O)NC3CC3)c2)cn1` [I-T3-86], the “efficacy (kill)” value in series [1], in series [5], in series [11] and in series [12] was 100% in each case. In addition, the “logP^a)” value in [2] and in [2] (setting [13]) was 4.5 in each case. In addition, the “efficacy (laying of fertile eggs)” value in series [3] and in series [8] was 100% in each case. In addition, the efficacy in series [4] (application rate 100 g/ha), in [6], in series [7] (application rate 100 g/ha) and in [10] (application rate 100 g/ha) was 100% in each case.
Regarding `Cc1ncc(-c2cnn(-c3c(Cl)cc(C(F)(C(F)(F)F)C(F)(F)F)cc3C(F)(F)F)c2)cc1C(=O)NC1(C#N)CC1` [I-T3-125], the “efficacy (kill)” value in series [1], in [5], in [11] and in series [12] was 100% each time. Also, the “logP^a)” value in series [2] (reversed-phase column (C18)) is listed as 3.8. In addition, the “log P” value in series [2] (setting [13]) came out at 3.8. Besides, the “efficacy (laying of fertile eggs)” value in [3] and in [8] was 100% throughout. Also, the efficacy in series [6], in [7] (application rate 100 g/ha), in series [9] (application rate 100 g/ha) and in series [10] (application rate 100 g/ha) was 100% each time.
Turning to `N#CC1(NC(=O)c2cc(-c3cnn(-c4c(Cl)cc(C(F)(C(F)(F)F)C(F)(F)F)cc4C(F)(F)F)c3)ccc2Cl)CC1` [I-T3-57], the “efficacy (kill)” value in [1], in [5], in series [11] and in series [12] was 100% each time. Also, the “logP^a)” value in series [2] and in series [2] (setting [13]) was 4.3 in each case. For the same compound, the “efficacy (laying of fertile eggs)” value in [3] and in [8] was 100% in each case. Besides, the efficacy in series [4] (application rate 100 g/ha), in [6], in series [7] (application rate 100 g/ha) and in [10] (application rate 100 g/ha) was 100% in each case.

Source of the values: patent US10150737B2, “Compounds for controlling arthropods” (priority 2013, dated 2018).
